Data set [1] concerns P388. The data set is described as follows: In vitro concentration to inhibit the growth of P-388 leukemia cells. It is filed as functional, cell-based. As to conditions: Mus musculus.
Data set [2] can be described thus: The dissociation constant of the free compound in 1: 1 dioxane-water mixture. It is filed as ADME.
Data set [3] is described as follows: The dissociation constant at pH 8 using potentiometric titration in 100 uM of compound in 0.15 M KCl at 25 degree Centigrade. Conditions: 0.15 M KCl solution. It is filed as ADME.
A short description of data set [4]: The dissociation constant at pH 3 using potentiometric titration in 100 uM of compound in 0.15 M KCl at 25 degrees Centigrade. As to conditions: 0.15 M KCl solution. It is filed as ADME.
The subject of data set [5] is P388. Briefly: Compound concentration was evaluated in vitro to inhibit the growth of P-388 leukemia cells. It is filed as functional. As to conditions: Mus musculus, read-out: ID50 (the source's name).

In brackets after ≈: the same amount, converted by molar mass.

As to “5-Amino-6-(7-amino-6-methoxy-5,8-dioxo-5,8-dihydro-quinolin-2-yl)-4-(2-hydroxy-3,4-dimethoxy-phenyl)-3-methyl-pyridine-2-carboxylic acid; compound with Gold”, the ID50 in data set [1] is 0.05 µg/mL.

For the compound `COC1=C(N)C(=O)c2nc(-c3nc(C(=O)O)c(C)c(-c4ccc(OC)c(OC)c4O)c3N)ccc2C1=O` [STREPTONIGRIN], in data set [2], the pKa turned out to be 6.5. Also, the pKa at 100 µM came out at 6.6 in data set [3] and 4.7 in data set [4]. Further, the IC50 in data set [5] was 0.05 µg/mL (≈ 0.0987 µM).

Source of the values: ChEMBL document CHEMBL1124601, “Bifunctional antitumor compounds: synthesis and characterization of a Au(III)-streptonigrin complex with thiol-modulating properties” (J Med Chem, 1989).
